Reference: ChEMBL document CHEMBL1201862, “PubChem BioAssay data set” (2004)
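Each compound was tested at five concentrations against cells in 96-well plates for 48 hours. GI50 = concentration required for 50% inhibition of growth.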 Calls of active or inactive are those of the source. Rule as the data show it: active = GI50 up to about 1.1 µM and inactive = higher.

Tests used:
Assay in all cases: DTP human tumour cell line panel, 48 h
HCC 2998 = system: HCC 2998
TK-10 = system: TK-10
SK-MEL-2 = system: SK-MEL-2
SF-539 = system: SF-539
NCI-H460 = system: NCI-H460
CAKI-1 = system: CAKI-1
ACHN = system: ACHN
DLD-1 = system: DLD-1
M14 = system: M14
786-0 = system: 786-0
OVCAR-3 = system: OVCAR-3
HL-60 = system: HL-60
SNB-75 = system: SNB-75
HCT-116 = system: HCT-116
HT-29 = system: HT-29
K562 = system: K562
HOP-62 = system: HOP-62
A498 = system: A498
IGROV-1 = system: IGROV-1
MDA-N = system: MDA-N

Row | SMILES | GI50 (HCC 2998) | GI50 (TK-10) | GI50 (SK-MEL-2) | GI50 (SF-539) | GI50 (NCI-H460) | GI50 (CAKI-1) | GI50 (ACHN) | GI50 (DLD-1) | GI50 (M14) | GI50 (786-0) | GI50 (OVCAR-3) | GI50 (HL-60) | GI50 (SNB-75) | GI50 (HCT-116) | GI50 (HT-29) | GI50 (K562) | GI50 (HOP-62) | GI50 (A498) | GI50 (IGROV-1) | GI50 (MDA-N)
1 | COc1cc(/C=C2\Cc3ccccc3C2=O)cc(OC)c1OC | > 100 µM (inactive) | > 100 µM (inactive) | > 100 µM (inactive) | > 100 µM (inactive) | > 100 µM (inactive) | > 100 µM (inactive) | > 100 µM (inactive) | > 100 µM (inactive) | > 100 µM (inactive) | > 100 µM (inactive) | > 100 µM (inactive) | > 100 µM (inactive) | 51.5 µM (inactive) | > 100 µM (inactive) | > 100 µM (inactive) | > 100 µM (inactive) | > 100 µM (inactive) | – | – | –
2 | OCCn1cnc2c(SCc3ccccc3)ncnc21 | > 100 µM (inactive) | > 100 µM (inactive) | > 100 µM (inactive) | 87.5 µM (inactive) | 19.6 µM (inactive) | > 100 µM (inactive) | > 100 µM (inactive) | – | > 100 µM (inactive) | > 100 µM (inactive) | > 100 µM (inactive) | 68.1 µM (inactive) | > 100 µM (inactive) | 48.8 µM (inactive) | > 100 µM (inactive) | 79.4 µM (inactive) | > 100 µM (inactive) | > 100 µM (inactive) | > 100 µM (inactive) | > 100 µM (inactive)
3 | O=C(O)c1cc(C(=O)O)cc(N2C(=O)c3ccccc3C2=O)c1 | > 100 µM (inactive) | > 100 µM (inactive) | > 100 µM (inactive) | > 100 µM (inactive) | > 100 µM (inactive) | > 100 µM (inactive) | > 100 µM (inactive) | – | > 100 µM (inactive) | > 100 µM (inactive) | > 100 µM (inactive) | > 100 µM (inactive) | > 100 µM (inactive) | > 100 µM (inactive) | > 100 µM (inactive) | > 100 µM (inactive) | > 100 µM (inactive) | > 100 µM (inactive) | > 100 µM (inactive) | > 100 µM (inactive)
4 | O=C(C1OC1c1ccc(Cl)cc1)C12CC3CC(CC(C3)C1)C2 (stereo not drawn) | 19.1 µM (inactive) | 26.7 µM (inactive) | 25.5 µM (inactive) | 17.3 µM (inactive) | 14.9 µM (inactive) | 28.8 µM (inactive) | 35.4 µM (inactive) | – | 17.8 µM (inactive) | 16.3 µM (inactive) | 15.8 µM (inactive) | 18.3 µM (inactive) | 32.8 µM (inactive) | 12.4 µM (inactive) | 21 µM (inactive) | 25.1 µM (inactive) | 24.8 µM (inactive) | 23.7 µM (inactive) | 23.6 µM (inactive) | 15.2 µM (inactive)
5 | COC(=O)c1cc2c3c(c1)Oc1cc(C(=O)OC)cc4c1C3c1c(cc(C(=O)OC)cc1O4)O2 | 31.8 µM (inactive) | 15.3 µM (inactive) | 36.6 µM (inactive) | 15.1 µM (inactive) | 23.8 µM (inactive) | 14 µM (inactive) | 11.7 µM (inactive) | – | 26.6 µM (inactive) | 11 µM (inactive) | 10.3 µM (inactive) | 3.03 µM (inactive) | 5.81 µM (inactive) | 18.6 µM (inactive) | 0.802 µM (active) | 11.5 µM (inactive) | 11.4 µM (inactive) | > 76.2 µM (inactive) | 11.9 µM (inactive) | 8.22 µM (inactive)
6 | CCOP(=O)(OCC)C(C#N)Cc1ccco1 (stereo not drawn) | > 10 µM (inactive) | > 10 µM (inactive) | > 10 µM (inactive) | > 10 µM (inactive) | > 10 µM (inactive) | > 10 µM (inactive) | > 10 µM (inactive) | – | > 10 µM (inactive) | > 10 µM (inactive) | > 10 µM (inactive) | > 10 µM (inactive) | 5.94 µM (inactive) | > 10 µM (inactive) | > 10 µM (inactive) | > 10 µM (inactive) | > 10 µM (inactive) | > 10 µM (inactive) | > 10 µM (inactive) | > 10 µM (inactive)
7 | CC(Nc1ccc(S(=O)(=O)NC(=N)N)cc1)c1c2ccccc2nc2ccccc12 (stereo not drawn) | 27.5 µM (inactive) | 47.4 µM (inactive) | 22.5 µM (inactive) | 22.9 µM (inactive) | 25.4 µM (inactive) | 19 µM (inactive) | 24.7 µM (inactive) | 18.1 µM (inactive) | 41 µM (inactive) | 36 µM (inactive) | > 10 µM (inactive) | 14.5 µM (inactive) | 26.8 µM (inactive) | > 10 µM (inactive) | 35.4 µM (inactive) | 27.6 µM (inactive) | – | – | 46.5 µM (inactive) | –
8 | O=c1[nH]c2cc([N+](=O)[O-])ccc2nc1/C(=N\NO)C(O)c1ccc([N+](=O)[O-])cc1 (stereo not drawn) | > 100 µM (inactive) | – | – | 31.3 µM (inactive) | > 100 µM (inactive) | 50.2 µM (inactive) | 52.5 µM (inactive) | > 100 µM (inactive) | > 100 µM (inactive) | > 100 µM (inactive) | > 100 µM (inactive) | 79.4 µM (inactive) | > 100 µM (inactive) | > 100 µM (inactive) | > 100 µM (inactive) | > 100 µM (inactive) | > 100 µM (inactive) | – | > 100 µM (inactive) | –
9 | c1ccc2c(c1)CN1CCCC1CN2 (stereo not drawn) | > 100 µM (inactive) | > 100 µM (inactive) | > 100 µM (inactive) | > 100 µM (inactive) | > 100 µM (inactive) | > 100 µM (inactive) | > 100 µM (inactive) | – | > 100 µM (inactive) | > 100 µM (inactive) | > 100 µM (inactive) | > 100 µM (inactive) | > 100 µM (inactive) | > 100 µM (inactive) | > 100 µM (inactive) | > 100 µM (inactive) | > 100 µM (inactive) | > 100 µM (inactive) | > 100 µM (inactive) | > 100 µM (inactive)
10 | NC(=O)CCC(Nc1c2ccccc2[n+]([O-])c2ccccc12)C(=O)O (stereo not drawn) | > 100 µM (inactive) | > 100 µM (inactive) | > 100 µM (inactive) | – | 80 µM (inactive) | – | 36.6 µM (inactive) | 27.8 µM (inactive) | > 100 µM (inactive) | > 100 µM (inactive) | 60.1 µM (inactive) | 11.1 µM (inactive) | 26.7 µM (inactive) | 38.3 µM (inactive) | – | 37.8 µM (inactive) | > 100 µM (inactive) | > 100 µM (inactive) | > 100 µM (inactive) | –
11 | C1=Cc2nc1c(-c1ccccc1)c1ccc([n-]1)c(-c1ccccc1)c1nc(c(-c3ccccc3)c3ccc([n-]3)c2-c2ccccc2)C=C1.[Zn+2] | > 100 µM (inactive) | > 100 µM (inactive) | > 100 µM (inactive) | > 100 µM (inactive) | > 100 µM (inactive) | > 100 µM (inactive) | > 100 µM (inactive) | 70.1 µM (inactive) | > 100 µM (inactive) | > 100 µM (inactive) | > 100 µM (inactive) | 45 µM (inactive) | 67.5 µM (inactive) | > 100 µM (inactive) | > 100 µM (inactive) | > 100 µM (inactive) | 19.9 µM (inactive) | – | > 100 µM (inactive) | –
